Biological target: T1, NKA receptor (Mus musculus, UniProt P30549)
T1 construct: contractions of the urinary bladder in the anaesthetized mouse; from tissue; host or cells: urinary bladder of the anaesthetized animal, in vivo
T1 sequence (P30549 1-384): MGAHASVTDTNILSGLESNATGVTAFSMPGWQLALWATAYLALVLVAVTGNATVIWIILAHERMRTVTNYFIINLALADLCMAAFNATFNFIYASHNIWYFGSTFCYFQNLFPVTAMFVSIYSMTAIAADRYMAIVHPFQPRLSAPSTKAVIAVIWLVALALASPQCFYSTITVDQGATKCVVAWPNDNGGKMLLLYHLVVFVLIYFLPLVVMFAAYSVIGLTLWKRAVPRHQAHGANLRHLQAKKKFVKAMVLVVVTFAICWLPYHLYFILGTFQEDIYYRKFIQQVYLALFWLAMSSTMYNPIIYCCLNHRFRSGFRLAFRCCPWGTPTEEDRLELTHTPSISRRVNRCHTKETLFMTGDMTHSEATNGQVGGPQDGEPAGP
Assay: in vivo inhibition of agonist [betaAla8]NKA(4-10)-induced contractions of the urinary bladder after intravenous administration
Conditions: anaesthetized mouse, 10 nmol/Kg i.v.
Description: The capability of the compounds of the present invention to interact as agonists or antagonists with the neurokynin A (NKA) receptor has been valued in a in vitro test using the pulmonary artery of a rabbit (RPA) (Rovero et al., Neuropeptides, 1989, 13, 263-270) and their activity was determined as pKB ([…] of the dissociation constant), as described in Jenkinson et al., TiPS, 12, 53-56, 1991. For example, compound 2 has shown a pKB =8.67. The capability of the products of the present invention to interact as agonists or antagonists with NKA receptor has been valued in vivo as capability, after intravenous administration,to inhibit the agonist [betaAla^8 ] NKA (4-10)-induced contractions of the urinary bladder in the anaesthetized mouse, as described in Maggi et al., J. Pharmacol. Exp. Ther., 1991, 257, 1172. Compound 1, e.g., causes, at dose of 10 nmol/Kg i.v., an inhibitory effect of 50-70%, as it has been valued at different times. The effect lasts over a period of more than 3 hours.

- duration of the inhibitory effect: more than 3 hours
- inhibitory effect on [betaAla8]NKA(4-10)-induced contractions of the urinary bladder (valued at different times): 50-70%
Substance: cyclo([Asn(β-D-Glc)-Asp-Trp-Phe-Dap-Leu]cyclo(2β-5β)) [Compound 1]
